# Measured values published in patent US9056099B2, “Compositions and methods for treating viral diseases” (NovaDrug, LLC, priority 2010, dated 2015).
# System: HCV (JFH-1) in Huh7-1 cells
# Experiment: Assay for anti-HCV efficacy: JFH-1 HCV infection of Huh7-1 cultures, intracellular HCV RNA by RT-qPCR
# Assay type: cell-based, Hepatitis C virus
# Conditions: Compound Example 1 series; % viral titer at 5 μM or 15 μM; HCV-infected Huh7-1 cultures
# Text: In the past, HCV studies involved mainly infected patients and chimpanzees. Recently, a robust HCV infection system was developed with cells derived from the Huh-7 human hepatoma cell line (see, for example, Yu et al., “Development of a cell-based hepatitis C virus infection fluorescent resonance energy transfer assay for high-throughput antiviral compound screening” Antimicrob Agents Chemother. 2009 53:4311-4319 for additional details regarding growing virus stocks, maintenance of the Huh-7 cells, infection parameters, and HCV titers determinations; and Yu & Uprichard “Cell-based hepatitis C virus infection fluorescence resonance energy transfer (FRET) assay for antiviral compound screening” Curr Protoc Microbiol. 2010; Chapter 17: Unit 17.5). Briefly, the assay is based on the unique JFH-1 HCV consensus cDNA derived from an HCV patient. Using reverse genetics, the infectious virus can be rescued from this HCV clone. The recovered viable JFH virus can be passaged serially in Huh-7 cells. For this reason, this system is amenable for testing the activity of potential drugs for their anti-HCV efficacy. The antiviral activity of the compounds described herein is tested in this system.
# Initially, 6×10^3 Huh7-1 cells are incubated overnight in each well of collagen-coated BioCoat 96-well plates (BD Biosciences, Bedford, Mass.) in 0.2 mL 10% Medium composed of Dulbecco's modified Eagle's medium supplemented with 10% fetal bovine serum. Subsequently, at 2 day intervals, the cultures are replenished with fresh 0.2 mL 10% Medium. Once the cultures become confluent, they are continually replenished at 2 day intervals with fresh 0.2 mL 10% Medium that also includes 1% dimethyl sulfoxide (DMSO). After 20 days of these replenishments, the Huh7-1 cultures are incubated with fresh 1% Medium (same as 10% Medium except that the serum level is 1%) containing HCV at a multiplicity of infection (MOI) of 0.05 focus forming units (ffu)/cell. The HCV (JFH-1wt Huh7) stock titer is 1.5×10^5 ffu/mL. The next day (day 1 post-infection) and 2 days later (day 3 post-infection) the media are replenished with fresh 1% Medium containing the test compounds dissolved in DMSO. On the 5th day of treatment with the compounds, cell lysates are collected for RNA isolation and Real Time-quantitative Reverse Transcription Polymerase Chain Reaction (RT-qPCR) and culture media are collected for cytotoxicity analysis.
# Total RNA is isolated from cells by the guanidine thiocyanate method using standard protocols. One μg RNA is used for cDNA synthesis using TaqMan reverse transcription reagents (Applied Biosystems, Foster City, Calif.) followed by real-time PCR using an Applied Biosystems 7300 real-time thermocycler. Illustrative thermal cycling consists of initial denaturation of 10 min at 95° C. followed by 40 cycles of denaturation (15 s at 95° C.) and annealing/extension (1 m at 60° C.). HCV and human glyceraldehyde-3-phosphate dehydrogenase (GAPDH) RNA levels are determined relative to a standard curve of serial dilutions of plasmid containing JFH-1 HCV or GAPDH cDNA. The PCR primers used to detect GAPDH and HCV are illustratively: GAPDH (NMX002046) 5′-GAAGGTGAAGGTCGGAGTC-3′ (SEQ ID NO: 5) (sense) and 5′-[…]-3′ (SEQ ID NO: 6) (anti-sense) JFH-1 HCV (AB047639) 5′-TCTGCGGAACCGGTGAGTA-3′ (SEQ ID NO: 7) (sense) and 5′-TCAGGCAGTACCACAAGGC-3′ (SEQ ID NO: 8) (anti-sense).
# FIGS. 1-7 illustrate the intracellular HCV RNA levels when cultures are incubated with the selected test compounds at the doses shown. When HCV RNA levels are compared among the samples, the data may indicate that the compounds cause a dose dependent decrease in HCV RNA levels relative to the mock-treated (no compound added) HCV infected control.
row,Compound,Activity (viral titer)
1,COc1cccc([C@H]2CN(C(=O)c3ccccc3)[C@@H]3CCN(Cc4cccs4)C[C@H]23)c1,− (>60% viral titer at 15 μM (highest concentration tested))
2,O=C(c1ccccc1F)N1CC(c2ccsc2)C2CN(Cc3ccccc3)CCC21 (stereo not drawn),− (>60% viral titer at 15 μM (highest concentration tested))
3,O=C(c1cccs1)N1C[C@H](c2ccc(F)cc2)[C@H]2CN(Cc3ccccc3)CC[C@H]21,− (>60% viral titer at 15 μM (highest concentration tested))
4,O=C(c1ccc(F)cc1)N1C[C@H](c2ccsc2)[C@H]2CN(Cc3cccs3)CC[C@H]21,− (>60% viral titer at 15 μM (highest concentration tested))
5,O=C(c1ccccc1F)N1C[C@H](c2ccsc2)[C@H]2CN(Cc3ccccn3)CC[C@H]21,− (>60% viral titer at 15 μM (highest concentration tested))
6,O=C(c1ccncc1)N1CC(c2ccsc2)C2CN(Cc3cccs3)CCC21 (stereo not drawn),− (>60% viral titer at 15 μM (highest concentration tested))
7,O=C(c1cccnc1)N1C[C@H](c2ccc(F)cc2)[C@H]2CN(Cc3ccccc3)CC[C@H]21,++ (≦60% viral titer at 5 μM)
8,O=C(c1ccccc1F)N1CC(c2ccsc2)C2CN(Cc3ccccc3F)CCC21 (stereo not drawn),− (>60% viral titer at 15 μM (highest concentration tested))
9,COc1cccc([C@H]2CN(C(=O)c3ccccc3)[C@@H]3CCN(Cc4ccccc4F)C[C@H]23)c1,+ (≦60% viral titer at 15 μM)
10,COc1ccc(CN2CCC3C(C2)C(c2ccc(F)cc2)CN3C(=O)c2ccccn2)cc1 (stereo not drawn),− (>60% viral titer at 15 μM (highest concentration tested))
11,COc1cccc(C2CN(C(=O)c3ccccc3)C3CCN(Cc4ccc(C)cc4)CC23)c1 (stereo not drawn),+ (≦60% viral titer at 15 μM)
12,O=C(c1ccncc1)N1CC(c2ccc(F)cc2)C2CN(Cc3ccsc3)CCC21 (stereo not drawn),− (>60% viral titer at 15 μM (highest concentration tested))
13,O=C(c1ccccn1)N1CC(c2ccc(F)cc2)C2CN(Cc3ccccn3)CCC21 (stereo not drawn),− (>60% viral titer at 15 μM (highest concentration tested))
14,COc1cccc([C@H]2CN(C(=O)c3ccccc3)[C@@H]3CCN(Cc4ccccc4)C[C@H]23)c1,− (>60% viral titer at 15 μM (highest concentration tested))
15,O=C(c1cccnc1)N1CC(c2ccc(F)cc2)C2CN(Cc3ccccc3Cl)CCC21 (stereo not drawn),− (>60% viral titer at 15 μM (highest concentration tested))
16,COc1ccc(C2CN(C(=O)c3ccccc3)C3CCN(Cc4ccccc4F)CC23)cc1 (stereo not drawn),++ (≦60% viral titer at 5 μM)
17,O=C(c1cccs1)N1C[C@H](c2ccc(F)cc2)[C@H]2CN(Cc3ccccn3)CC[C@H]21,− (>60% viral titer at 15 μM (highest concentration tested))

# Same assay, conditions: Compound Example 2 series; % viral titer at 5 μM or 15 μM; HCV-infected Huh7-1 cultures
row,Compound,Activity (viral titer)
1,COc1ccc(C2CN(C(=O)c3ccccc3)C3CCN(Cc4ccc(F)cc4)CC23)cc1 (stereo not drawn),+++ (≦30% viral titer at 5 μM)
2,O=C(c1ccncc1)N1CC(c2ccc(F)cc2)C2CN(Cc3ccncc3)CCC21 (stereo not drawn),− (>60% viral titer at 15 μM (highest concentration tested))
3,O=C(c1ccncc1)N1CC(c2ccc(F)cc2)C2CN(Cc3cccc(F)c3)CCC21 (stereo not drawn),− (>60% viral titer at 15 μM (highest concentration tested))
4,O=C(c1ccncc1)N1CC(c2ccsc2)C2CN(Cc3ccc(F)cc3)CCC21 (stereo not drawn),+ (≦60% viral titer at 15 μM)
5,Cc1ccccc1CN1CCC2C(C1)C(c1ccc(F)cc1)CN2C(=O)c1ccncc1 (stereo not drawn),− (>60% viral titer at 15 μM (highest concentration tested))
6,O=C(c1ccc(F)cc1)N1C[C@@H](c2ccsc2)[C@@H]2CN(Cc3cccc(F)c3)CC[C@@H]21,− (>60% viral titer at 15 μM (highest concentration tested))
7,COc1cccc(CN2CC[C@H]3[C@@H](C2)[C@H](c2ccc(F)cc2)CN3C(=O)c2cccnc2)c1,+ (≦60% viral titer at 15 μM)
8,COc1ccc(CN2CC[C@H]3[C@@H](C2)[C@H](c2ccsc2)CN3C(=O)c2ccncc2)cc1,− (>60% viral titer at 15 μM (highest concentration tested))
9,O=C(c1ccncc1)N1CC(c2ccc(F)cc2)C2CN(Cc3ccccc3)CCC21 (stereo not drawn),− (>60% viral titer at 15 μM (highest concentration tested))
10,O=C(c1ccncc1)N1C[C@@H](c2ccsc2)[C@@H]2CN(Cc3cccc(F)c3F)CC[C@@H]21,− (>60% viral titer at 15 μM (highest concentration tested))
11,O=C(c1ccncc1)N1C[C@@H](c2ccsc2)[C@@H]2CN(Cc3ccccc3Cl)CC[C@@H]21,− (>60% viral titer at 15 μM (highest concentration tested))
12,COc1ccccc1CN1CC[C@H]2[C@@H](C1)[C@H](c1ccsc1)CN2C(=O)c1ccccc1,− (>60% viral titer at 15 μM (highest concentration tested))
13,CC(C)c1ccc(CN2CC[C@H]3[C@@H](C2)[C@H](c2ccsc2)CN3C(=O)c2ccncc2)cc1,− (>60% viral titer at 15 μM (highest concentration tested))
14,O=C(c1ccc(F)cc1)N1C[C@@H](c2ccsc2)[C@@H]2CN(Cc3ccncc3)CC[C@@H]21,− (>60% viral titer at 15 μM (highest concentration tested))
15,O=C(c1ccncc1)N1CC(c2ccc(F)cc2)C2CN(Cc3ccccc3F)CCC21 (stereo not drawn),− (>60% viral titer at 15 μM (highest concentration tested))
16,O=C(c1ccccc1)N1C[C@@H](c2ccsc2)[C@@H]2CN(Cc3ccc(Cl)cc3)CC[C@@H]21,++ (≦60% viral titer at 5 μM)
